Our source for the IC50 values is patent publication US8637525B2, “Compounds for the reduction of beta-amyloid production” (Bristol-Myers Squibb Company, priority 2009, dated 2014).

The assay has as its system Aβ1-42 production. The experiment in a line: Cellular assay for inhibition of Aβ1-42 production (H4 APP751 SWE clone 8.20). It counts as cell-based. As to conditions: H4 APP751 SWE clone 8.20 cells, 19 h incubation. In short, it runs like this: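 Aβ42 read by time-resolved FRET using neoepitope antibody 565 (0.8 ng/well) paired with N-terminal 26D6 (75 ng/well), incubated overnight at 4 °C, then IC50 curve fitting. Cells: H4 APP751 Swedish clone 8.20, exposed to compound for 19 h at 37 °C.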

The mark [1] stands for this setting: 19 h, read-out: Activity Rating (Aβ42 cellular IC50), numeric value.
The mark [2] stands for this setting: 19 h, class symbols, read-out: Activity Rating (Aβ42 cellular IC50).
Where [3] appears, read: class symbols, read-out: Activity Rating (Aβ42 cellular IC50).

Where two headings read alike, the source gives them in different places.

The term IC50 denotes the point on the concentration scale where inhibition reaches its midpoint. As for `CNc1nc(Nc2ccc(C#N)c(C#N)c2)nc2c1CCC2c1ccccc1` (stereo not drawn) [Example 237, 4-(4-(methylamino)-7-phenyl-6,7-dihydro-5H-cyclopenta[d]pyrimidin-2-ylamino)phthalonitrile], the IC50 under setting [1] was 29 nM.

Consider `COc1cc(Nc2nc3c(c(N(C)C)n2)CCC3c2ccc(Cl)cc2)ccc1-n1cnc(Cl)c1` (stereo not drawn) [Example 92, N^2-(4-(4-Chloro-1H-imidazol-1-yl)-3-methoxyphenyl)-7-(4-chlorophenyl)-N^4,N^4-dimethyl-6,7-dihydro-5H-cyclopenta[d]pyrimidine-2,4-diamine], for which the IC50 under setting [2] was 10 to 100 nM.

On to `CNc1nc(Nc2ccc(-n3cnc(Cl)c3)c(OC)c2)nc2c1COCC2c1ccc(C(F)(F)F)cc1` (stereo not drawn) [Example 120B, N2-(4-(4-chloro-1H-imidazol-1-yl)-3-methoxyphenyl)-N4-methyl-8-(4-(trifluoromethyl)phenyl)-7,8-dihydro-5H-pyrano[4,3-d]pyrimidine-2,4-diamine], for which the IC50 under setting [3] fell in the range of 100 to 1000 nM.

In the case of `COc1cc(Nc2nc3c(c(N4CCC(F)(F)C4)n2)CCC3c2cc(F)c(F)c(F)c2)ccc1-n1cnc(Cl)c1` (single isomer, unassigned) [Example 107A, N-(4-(4-chloro-1H-imidazol-1-yl)-3-methoxyphenyl)-4-(3,3-difluoropyrrolidin-1-yl)-7-(3,4,5-trifluorophenyl)-6,7-dihydro-5H-cyclopenta[d]pyrimidin-2-amine], under setting [3], the IC50 lay in the range of 10 to 100 nM.

Consider `COc1cc(Nc2nc3c(c(N4CC[C@@H](F)C4)n2)CCN(S(C)(=O)=O)C3c2ccc(F)cc2)ccc1-n1cnc(Cl)c1` (stereo partly drawn) [Example 174], for which, under setting [2], the IC50 is 10 to 100 nM.

As for `COc1cc(Nc2nc3c(c(N4CC(C)(OC)C4)n2)CCC3c2ccc(F)cc2)ccc1-n1cnc(Cl)c1` (stereo not drawn) [Example 191B, N-(4-(4-chloro-1H-imidazol-1-yl)-3-methoxyphenyl)-7-(4-fluorophenyl)-4-(3-methoxy-3-methylazetidin-1-yl)-6,7-dihydro-5H-cyclopenta[d]pyrimidin-2-amine], the IC50 under setting [1] was 96 nM.

Turning to `COc1cc(Nc2nc3c(c(N4CC(F)(F)C4)n2)CCC3c2ccc(F)cc2)ccc1-n1cnc(Cl)n1` (racemic) [Example 17, N-(4-(3-chloro-1H-1,2,4-triazol-1-yl)-3-methoxyphenyl)-4-(3,3-difluoroazetidin-1-yl)-7-(4-fluorophenyl)-6,7-dihydro-5H-cyclopenta[d]pyrimidin-2-amine], under setting [2], the concentration for half-maximal inhibition (IC50) is 10 to 100 nM.

Consider `CNc1nc(Nc2ccc(-n3cnc(C)n3)c(OC)c2)nc2c1CC[C@H]2c1ccccc1OC` (single isomer, unassigned) [Example 266A], for which, under setting [2], the half-maximal inhibitory concentration (IC50) fell in the range of 10 to 100 nM.

As for `COc1cc(Nc2nc3c(c(N(C)C)n2)COCC3c2ccccc2)ccc1-n1cnc(Cl)c1` (racemic) [Example 53, N^2-(4-(4-Chloro-1H-imidazol-1-yl)-3-methoxyphenyl)-N^4,N^4-dimethyl-8-phenyl-7,8-dihydro-5H-pyrano[4,3-d]pyrimidine-2,4-diamine], the half-maximal inhibitory concentration (IC50) under setting [2] was 10 to 100 nM.

Consider `COc1cc(Nc2nc3c(c(N4CC(Cl)C4)n2)CCC3c2ccccc2)ccc1-n1cnc(Cl)c1` (stereo not drawn) [Example 181, N-(4-(4-chloro-1H-imidazol-1-yl)-3-methoxyphenyl)-4-(3-chloroazetidin-1-yl)-7-phenyl-6,7-dihydro-5H-cyclopenta[d]pyrimidin-2-amine], for which, under setting [3], the IC50 lay in the range of 10 to 100 nM.

As to `COc1cc(Nc2nc3c(c(N4CCC4)n2)CCC3c2ccc(OC(F)(F)F)cc2)ccc1-n1cnc(Cl)c1` (racemic) [Example 101, 4-(Azetidin-1-yl)-N-(4-(4-chloro-1H-imidazol-1-yl)-3-methoxyphenyl)-7-(4-(trifluoromethoxy)phenyl)-6,7-dihydro-5H-cyclopenta[d]pyrimidin-2-amine], under setting [2], the IC50 fell in the range of 10 to 100 nM.

`CCNc1nc(Nc2ccc(-n3ncnc3C)c(F)c2)nc2c1CN(S(C)(=O)=O)CC2c1ccccc1` (stereo not drawn) [Example 140, N4-ethyl-N2-(3-fluoro-4-(5-methyl-1H-1,2,4-triazol-1-yl)phenyl)-6-(methylsulfonyl)-8-phenyl-5,6,7,8-tetrahydropyrido[4,3-d]pyrimidine-2,4-diamine]: under setting [3], the IC50 was in the range of 10 to 100 nM.

Consider `COc1cc(Nc2nc3c(c(N(C)C)n2)CCC3c2ccc(F)c(F)c2)ccc1-n1cnc(Cl)c1` (single isomer, unassigned) [Example 95A, N^2-(4-(4-chloro-1H-imidazol-1-yl)-3-methoxyphenyl)-7-(3,4-difluorophenyl)-N^4,N^4-dimethyl-6,7-dihydro-5H-cyclopenta[d]pyrimidine-2,4-diamine], for which the half-maximal inhibitory concentration (IC50) under setting [3] was in the range of 1.5 to 9.9 nM.

For `CNc1nc(Nc2ccc(-c3ccncc3)c(OC)c2)nc2c1CCC2c1ccccc1` (stereo not drawn) [Example 262, N2-(3-methoxy-4-(pyridin-4-yl)phenyl)-N4-methyl-7-phenyl-6,7-dihydro-5H-cyclopenta[d]pyrimidine-2,4-diamine], under setting [2], the IC50 was 1.5 to 9.9 nM.

`CNc1nc(Nc2ccc(-n3cnc(Cl)c3)c(OC)c2)nc2c1CCC2c1cc(F)cc(F)c1` (racemic) [Example 102, N^2-(4-(4-Chloro-1H-imidazol-1-yl)-3-methoxyphenyl)-7-(3,5-difluorophenyl)-N^4-methyl-6,7-dihydro-5H-cyclopenta[d]pyrimidine-2,4-diamine]: under setting [2], the concentration for half-maximal inhibition (IC50) was in the range of 1.5 to 9.9 nM.

Consider `COc1cc(Nc2nc3c(c(N4CC(C)(OC)C4)n2)CCC3c2ccc(F)cc2)ccc1-n1cnc(C)n1` (stereo not drawn) [Example 192B, 7-(4-fluorophenyl)-4-(3-methoxy-3-methylazetidin-1-yl)-N-(3-methoxy-4-(3-methyl-1H-1,2,4-triazol-1-yl)phenyl)-6,7-dihydro-5H-cyclopenta[d]pyrimidin-2-amine], for which the half-maximal inhibitory concentration (IC50) (read-out: Activity Rating (Aβ42 cellular IC50), numeric value) came to 16 nM.

Consider `CCNc1nc(Nc2ccc(-n3cnc(Cl)c3)c(OC)c2)nc2c1CCN(C(=O)OC)C2c1ccc(F)cc1` (single isomer, unassigned) [Example 170A, methyl 2-(4-(4-chloro-1H-imidazol-1-yl)-3-methoxyphenylamino)-4-(ethylamino)-8-(4-fluorophenyl)-5,6-dihydropyrido[3,4-d]pyrimidine-7(8H)-carboxylate], for which, under setting [3], the 50% inhibitory concentration (IC50) was in the range of 1.5 to 9.9 nM.

Consider `CNc1nc(Nc2ccc(-n3cnc(Cl)c3)c(OC)c2)nc2c1CN(S(C)(=O)=O)CC2c1ccc(F)cc1` (stereo not drawn) [Example 154A, N2-(4-(4-chloro-1H-imidazol-1-yl)-3-methoxyphenyl)-8-(4-fluorophenyl)-N4-methyl-6-(methylsulfonyl)-5,6,7,8-tetrahydropyrido[4,3-d]pyrimidine-2,4-diamine], for which, under setting [3], the IC50 is 1.5 to 9.9 nM.

For `CCNc1nc(Nc2ccc(-n3cnc(Cl)c3)c(OC)c2)nc2c1COCC2c1ccc(C(F)(F)F)cc1` (stereo not drawn) [Example 118A, N2-(4-(4-chloro-1H-imidazol-1-yl)-3-methoxyphenyl)-N4-ethyl-8-(4-(trifluoromethyl)phenyl)-7,8-dihydro-5H-pyrano[4,3-d]pyrimidine-2,4-diamine], the half-maximal inhibitory concentration (IC50) under setting [3] fell in the range of 1.5 to 9.9 nM.

In the case of `CCC1CCCN1c1nc(Nc2ccc(-n3cnc(Cl)c3)c(OC)c2)nc2c1CCC2c1ccc(F)cc1` (single isomer, unassigned) [Example 23B, N-(4-(4-chloro-1H-imidazol-1-yl)-3-methoxyphenyl)-4-(2-ethylpyrrolidin-1-yl)-7-(4-fluorophenyl)-6,7-dihydro-5H-cyclopenta[d]pyrimidin-2-amine], under setting [3], the concentration for half-maximal inhibition (IC50) lay within 100 to 1000 nM.

Consider `CNc1nc(Nc2ccc(-n3cnc(C)n3)c(OC)c2)nc2c1COCC2c1ccc(Cl)cc1` (single isomer, unassigned) [Example 71B, 8-(4-chlorophenyl)-N^2-(3-methoxy-4-(3-methyl-1H-1,2,4-triazol-1-yl)phenyl)-N^4-methyl-7,8-dihydro-5H-pyrano[4,3-d]pyrimidine-2,4-diamine], for which the IC50 under setting [3] fell in the range of 10 to 100 nM.

In the case of `COc1cc(Nc2ncc3c(n2)C(c2ccc(F)cc2)CCC3)ccc1-n1cnc(Cl)c1` (stereo not drawn) [Example 128, N-(4-(4-Chloro-1H-imidazol-1-yl)-3-methoxyphenyl)-8-(4-fluorophenyl)-5,6,7,8-tetrahydroquinazolin-2-amine], the half-maximal inhibitory concentration (IC50) under setting [2] is 100 to 1000 nM.

Take `COc1cc(Nc2nc3c(c(N4CC(F)(F)C4)n2)CCC3c2ccc(F)cc2)ccc1-n1cnc(Cl)c1` (stereo not drawn) [Example 15, N-(4-(4-Chloro-1H-imidazol-1-yl)-3-methoxyphenyl)-4-(3,3-difluoroazetidin-1-yl)-7-(4-fluorophenyl)-6,7-dihydro-5H-cyclopenta[d]pyrimidin-2-amine]: the IC50 under setting [2] is 10 to 100 nM.

Consider `CCN(C)c1nc(Nc2ccc(-n3cnc(Cl)c3)c(OC)c2)nc2c1CCC2c1ccccc1` (single isomer, unassigned) [Example 5A, N^2-(4-(4-chloro-1H-imidazol-1-yl)-3-methoxyphenyl)-N^4-ethyl-N^4-methyl-7-phenyl-6,7-dihydro-5H-cyclopenta[d]pyrimidine-2,4-diamine], for which the half-maximal inhibitory concentration (IC50) under setting [3] was 1.5 to 9.9 nM.

As to `CCN(C)c1nc(Nc2ccc(-n3cnc(Cl)c3)c(OC)c2)nc2c1CCCC2c1ccc(F)cc1` (stereo not drawn) [Example 126, N^2-(4-(4-Chloro-1H-imidazol-1-yl)-3-methoxyphenyl)-N^4-ethyl-8-(4-fluorophenyl)-N^4-methyl-5,6,7,8-tetrahydroquinazoline-2,4-diamine], the IC50 under setting [2] was in the range of 10 to 100 nM.

Regarding `CNc1nc(Nc2ccc(-n3ncnc3C)c(OC)c2)nc2c1CN(C)CC2c1ccc(F)cc1` (stereo not drawn) [Example 199B, 8-(4-fluorophenyl)-N2-(3-methoxy-4-(5-methyl-1H-1,2,4-triazol-1-yl)phenyl)-N4,6-dimethyl-5,6,7,8-tetrahydropyrido[4,3-d]pyrimidine-2,4-diamine], the 50% inhibitory concentration (IC50) under setting [3] was 1.5 to 9.9 nM.

For `COc1cc(Nc2nc3c(c(N4CCC(F)C4)n2)COCC3c2ccc(F)cc2)ccc1-n1cnc(Cl)c1` (stereo in doubt) [Example 58A, N-(4-(4-chloro-1H-imidazol-1-yl)-3-methoxyphenyl)-8-(4-fluorophenyl)-4-((S)-3-fluoropyrrolidin-1-yl)-7,8-dihydro-5H-pyrano[4,3-d]pyrimidin-2-amine], the concentration for half-maximal inhibition (IC50) under setting [2] lay within 1.5 to 9.9 nM.
